Patent EP4516298A1, “STILBENE COMPOUNDS FOR USE IN THE TREATMENT AND PREVENTION OF INFECTIONS WITH CYTOMEGALOVIRUS (CMV)” (Szekeres, Thomas, priority 2023, dated 2025)

Key:
[1] = system: HCMV strain AD169; assay: Functional plaque reduction assay in HFF infected with human CMV; type: cell-based; conditions: for inhibition of CMV replication: plaque reduction assays in HFF treated with decreasing concentrations (Fig. 1-4)
Method: For the plaque reduction assay, HFF were seeded to 100 % confluency and then pre-treated with compound M8 at 8 different concentrations. HFF were subsequently infected with CMV strain AD169, washed and again incubated with two-fold dilutions of the compound. All experiments were done in triplicates (arrow bars show SEM). […] For the plaque reduction assay, HFF were seeded to 100 % confluency. The virus preparation of CMV strain AD169 was pretreated before infection of cells with compound M8 at 8 different concentrations. HFF were subsequently infected with CMV strain AD169, washed and again incubated with two-fold dilutions of the compound. All experiments were done in triplicates (arrow bars show SEM). […] For the plaque reduction assay HFF were seeded to 100 % confluency and subsequently infected with CMV strain AD169. Cells were washed thereafter and incubated with two-fold dilutions of the compound GCV. All experiments were done in triplicates (arrow bars show SEM). […] For the plaque reduction assay HFF were seeded to 100 % confluency and then pre-treated with compound RES at 8 different concentrations. HFF were subsequently infected with CMV strain AD169, washed and again incubated with two-fold dilutions of the compound. All experiments were done in triplicates (arrow bars show SEM).
HCMV strain AD169 was prepared as described previously (Rieder et al., J. Gen. Virol. 98 (2017), 471-485). For virus production, HFF were grown to confluence and subsequently infected with HCMV AD169 at a multiplicity of infection (MOI) of 0.01. The viral inoculum was replaced by culture medium after 90 min. Upon visibility of a total cytopathic effect (CPE) (usually 8-10 days post-infection), the viral supernatant was harvested and stored at - 80°C. After thawing, cell debris was removed by centrifugation at 3,000 g for 20 min. Infectivity of the viral inoculum was then measured using a plaque assay as described elsewhere (Britt, Curr. Protoc. Microbiol. (2010), 14E.3). […] Ganciclovir (Merck Millipore) was added at the indicated concentrations after removal of the inoculum. The cells were then overlaid with growth medium containing 0.5% low-melting point agarose. After solidification of the agarose layer, the plates were incubated for 10 days at 37°C in a CO2 incubator, then fixed with 2% formaldehyde and analysed for number of plaques after staining with 1:5 diluted Mayer's Hemalaun. Plaque numbers were normalized to the mean of DMSO-treated control samples. IC50 values were calculated with Graphpad Prism (dose-response inhibition).

[2] = system: HFF; assay: Toxicity of the compounds to HFF (inhibition of cellular metabolism); type: cell-based, human
[3] = treatment of HFF after CMV infection, CMV strain AD169
[4] = Human betaherpesvirus 5, AD169, cells (HFF) pretreated with compound for 90 min, CMV strain AD169, plaques counted after 10 days
[5] = cells (HFF) pretreated with compound, CMV strain AD169
[6] = virus pretreated with compound, CMV strain AD169

SMILES | inhibition of CMV replication [1] | concentration of complete inhibition [1, 3] | concentration of initial inhibitory effect [1, 3] | IC50 [1, 4] | IC50 ([1]; Human betaherpesvirus 5, AD169, virus pretreated with compound for 90 min before infection of HFF, CMV strain AD169) | concentration at which some inhibition of CMV was noted [1, 5] | concentration of complete inhibition of CMV [1, 5] | concentration at which inhibition was noticed [1, 6] | concentration of maximum inhibition [1, 6] | concentration found to be toxic to the HFF [2]
Nc1nc(O)c2ncn(COC(CO)CO)c2n1 [GCV, Ganciclovir, reference compound] | significant inhibition | ≥ 5 µM | 0.156 µM |  |  |  |  |  |  | 
Oc1cc(/C=C/c2cc(O)c(O)c(O)c2)cc(O)c1O [M8, 3,3',4,4',5,5'-hexahydroxy-trans-stilbene] | significant inhibition |  |  | ~37.5 µM | ~3 µM | 12.5 µM | 100 µM | 6.25 µM | 25 µM | > 100 µM
Oc1ccc(C=Cc2cc(O)cc(O)c2)cc1 [RES, resveratrol, reference compound] | significant inhibition |  |  | ~100 µM |  | 6.25 µM |  |  |  | > 100 µM
